pIC50: −log10 of the molar value.
What was measured:
[1] = molecular target: cellular cGAS activity in dsDNA-stimulated human whole blood (Homo sapiens (Human), UniProt Q8N884); test: Human whole blood assay (hWB IC50): IFNα2a production after dsDNA transfection; format: cell-based; settings: Table 1; dsDNA-stimulated human whole blood;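 also: IFNα-2a in plasma measured by MSD electrochemiluminescence immunoassay after 22 h at 37 °C, 8-point dilution series from 10 µM top concentration, DMSO wells as controls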
Chain of cellular cGAS activity in dsDNA-stimulated human whole blood (Q8N884 whole entry): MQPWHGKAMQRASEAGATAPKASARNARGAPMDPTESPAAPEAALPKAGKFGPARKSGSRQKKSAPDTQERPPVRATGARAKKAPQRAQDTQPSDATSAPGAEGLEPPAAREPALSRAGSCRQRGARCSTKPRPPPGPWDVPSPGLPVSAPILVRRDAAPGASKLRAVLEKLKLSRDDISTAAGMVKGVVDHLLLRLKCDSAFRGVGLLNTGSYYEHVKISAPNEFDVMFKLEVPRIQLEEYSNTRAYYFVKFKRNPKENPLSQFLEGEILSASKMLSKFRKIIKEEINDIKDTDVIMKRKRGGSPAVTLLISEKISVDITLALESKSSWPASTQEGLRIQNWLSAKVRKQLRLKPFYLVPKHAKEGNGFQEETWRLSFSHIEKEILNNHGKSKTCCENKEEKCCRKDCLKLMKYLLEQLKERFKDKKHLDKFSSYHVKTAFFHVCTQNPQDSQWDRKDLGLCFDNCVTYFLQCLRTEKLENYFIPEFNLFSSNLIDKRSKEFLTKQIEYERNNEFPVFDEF

[2] = system: pathway directly downstream of cGAS in cGAMP-stimulated THP1-Dual cells; test: cGAMP stimulated counter cell assay (THP1(cGAMP) IC50): IFN induction in cGAMP-stimulated THP1-Dual cells; format: cell-based, human; settings: Table 1; for pIC50: Homo sapiens, THP1-Dual, cGAMP-stimulated THP1 cells, read-out: THP(cGAMP) IC50; for Ratio THP(cGAMP) IC50/ THP(vir) IC50: selectivity for cGAS inhibition
From the text: 6.2 Method: Human cGAS Cell Assay and cGAMP Stimulated Counter Cell Assay (THP1(vir) IC50 and THP1(cGAMP) IC50)
THP1-Dual™ cells (InvivoGen #thpd-nfis) expressing IRF dependent Lucia luciferase reporter were used as basis for both assays. For the detection of cellular cGAS activity cells were stimulated by a baculovirus (pFastbac-1, Invitrogen, no coding insert) infection that delivers the cGAS enzyme stimulating double-stranded DNA (measurement of THP1(vir) IC50).
For the counter assay, cells were stimulated by cGAMP (SigmaAldrich #SML1232) to activate the identical pathway independent and directly downstream of cGAS (measurement of THP1(cGAMP) IC50). Pathway activity was monitored by measuring the Lucia luciferase activity induced by either DNA stimulated cGAS enzyme activity (measurement of THP1(vir) IC50) or by cGAMP directly (measurement of THP1(cGAMP) IC50, counter assay).
Compounds were delivered in 10 mM DMSO solution, serially diluted and transferred to the 384 well assay plate (Greiner #781201) using an Echo acoustic dispenser. Typically, 8 concentrations were used with the highest concentration at 10 μM in the final assay volume followed by ˜1:5 dilution steps. DMSO concentration was set to 1% in the final assay volume. The 384 well assay plate contained 21 test compounds (column 1-22), and DMSO in column 23 and 24.
Cells, cultivated according to manufacturer conditions, were harvested by centrifugation at 300 g/10 min and were then resuspended and diluted to 1.66E5 cells/ml in fresh cell culture medium (RPMI 1640 (Gibco #A10491-01), 10% FCS (Gibco #10500), 1× GlutaMax (Gibco #35050-061), 1× Pen/Strep solution (Gibco #15140-122), 100 μg/ml Normocin (InvivoGen #ant-nr), 100 μg/ml Zeocin (InvivoGen #ant-zn), 10 μg/ml Blasticidin S (Life Technologies #A11139-03)). The baculovirus solution was then added 1:200 (have varied according to virus batch) to the cells (measurement of THP1(vir) IC50). […] 30 μL of the cell/virus-mix were added to each well of the compound plate from column 1-23 via MultiDrop Combi dispenser (5000 cells/well). In column 24, 30 μl/5000 cells/well without virus were added as a low control.
The plates were then incubated for 18 h at 37° C. in a humidified incubator.
Following that, 15 μL of QuantiLuc detection reagent (InvivoGen #rep-qlcg5) were added to each well using a MultiDrop Combi. Measurement was done immediately after the addition using an EnVision reader (US-luminescence read-mode).
Data Evaluation and Calculation:
For data evaluation and calculation, the measurement of the low control was set as 0% control and the measurement of the high control was set as 100% control. The IC50 values were calculated using the standard 4 parameter logistic regression formula. Calculation: [y=(a−d)/(1+(x/c)^b)+d], a=low value, d=high value; x=conc M; c=IC50 M; b=slope

[3] = molecular target: cellular cGAS activity in baculovirus-stimulated THP1-Dual cells (Homo sapiens (Human), UniProt Q8N884); test: Human cGAS cell assay (THP1(vir) IC50): IFN induction in virus-stimulated THP1-Dual cells, IRF Lucia luciferase reporter; format: cell-based; settings: Table 1; virus-stimulated THP1 cells; read-out: THP(vir) IC50;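 also: Eight-point dilution series starting at 10 µM, 1% DMSO, 18 h at 37 °C, luminescence read-out, virus-free wells as 0% and DMSO-treated virus-stimulated wells as 100%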
Chain of cellular cGAS activity in baculovirus-stimulated THP1-Dual cells (Q8N884 whole entry): as above

Human cGAS enzyme = Human cGAS enzyme (Homo sapiens (Human), UniProt Q8N884); test: Human cGAS enzyme assay (hcGAS IC50, in vitro), cGAMP formation by RapidFire MS; format: biochemical; settings: Table 1;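 also: recombinant human cGAS activated by 45 bp dsDNA with 30 µM each ATP and GTP, 90 min, cGAMP vs cyclic-di-GMP standard by MS, 8-point titration from 10 µM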
Chain of Human cGAS enzyme (Q8N884 whole entry): as above

| SMILES | pIC50 [1] | pIC50 [3] | pIC50 (Human cGAS enzyme) | pIC50 [2] | Ratio THP(cGAMP) IC50/ THP(vir) IC50 [2] |
| --- | --- | --- | --- | --- | --- |
| C[C@H]1CN2CC[C@]1(F)c1cc(Cl)cnc1O[C@H]1C[C@@H](C(=O)O)N(C1)c1nc(nc3c1oc1ccccc13)COCCCC(F)(F)C2=O [Example 10, (1R,9S,11S,34S)-4-chloro-1,30,30-trifluoro-34-methyl-31-oxo-8,15,26-trioxa-6,12,23,32,37-pentaazaheptacyclo[30.2.2.1^9,12.1^13,24.0^2,7.0^14,22.0^16,21]octatriaconta-2,4,6,13,16,18,20,22,24(37)-nonaene-11-carboxylic acid] | 6.47 | 6.72 | 7.17 | 4.92 | 61 |
| C[C@H]1CN2CC[C@]1(F)c1cc(Cl)cnc1O[C@H]1C[C@@H](C(=O)O)N(C1)c1nc(nc3c1oc1ccccc13)CCCOCC2=O [Example 37, (1R,9S,11S,33S)-4-chloro-1-fluoro-33-methyl-30-oxo-8,15,28-trioxa-6,12,23,31,36-pentaaza-heptacyclo[29.2.2.1^9,12.1^13,24.0^2,7.0^14,22.0^16,21]heptatriaconta-2,4,6,13(36),14(22),16(21),17,19,23-nonaene-11-carboxylic acid] | 7.96 | 7.92 | 8.52 | 4.96 | 884 |
| C[C@H]1CN2CC[C@]1(F)c1cc(Cl)cnc1O[C@H]1C[C@@H](C(=O)O)N(C1)c1nc(nc3c1oc1ccccc13)CCOCCCC2=O [Example 16] | 7.00 | 7.44 | 7.96 | 5.18 | 184 |
| C[C@H]1CN2CC[C@]1(F)c1cc(Cl)cnc1O[C@H]1C[C@@H](C(=O)O)N(C1)c1nc(nc3c1oc1cc(F)ccc13)CCCCOCC2=O [Example 30] | 7.66 | 7.15 | 8.15 | 5.33 | 67 |

Further compounds by rising pIC50 [1], results first:

| pIC50 [1] | pIC50 [3] | pIC50 (Human cGAS enzyme) | SMILES | pIC50 [2] | Ratio THP(cGAMP) IC50/ THP(vir) IC50 [2] |
| --- | --- | --- | --- | --- | --- |
| 6.12 | 6.49 | 7.00 | O=C(O)[C@@H]1C[C@H]2CN1c1nc(nc3c1oc1ccccc13)C(F)(F)CCCCCC(=O)N1CCC(F)(CC1)c1cc(Cl)cnc1O2 [Example 07] | 4.92 | 37 |
| 7.35 | 7.72 | 7.74 | COc1ncccc1-c1cnc2c(c1)[C@@]1(F)CCN(C[C@@H]1C)C(=O)CCCOCCc1nc(c3oc4ccccc4c3n1)N1C[C@H](C[C@H]1C(=O)O)O2 [Example 20.01, (1R,9S,11S,34S)-1-fluoro-4-(2-methoxypyridin-3-yl)-34-methyl-31-oxo-8,15,27-trioxa-6,12,23,32,37-pentaazaheptacyclo[30.2.2.1^9,12.1^13,24.0^2,7.0^14,22.0^16,21]octatriaconta-2,4,6,13(37),14(22),16(21),17,19,23-nonaene-11-carboxylic acid] | 5.09 | 419 |
| 8.05 | 8.10 | 8.30 | C[C@H]1CN2CC[C@]1(F)c1cc(Cl)cnc1O[C@H]1C[C@@H](C(=O)O)N(C1)c1nc(nc3c1oc1cc(F)ccc13)C(F)(F)CCCOCC2=O [Example 32] | < 5.00 | 1190 |

From patent US20240189315A1, “Cyclic Pyridine Derivatives as cGAS Inhibitors” (Boehringer Ingelheim International GmbH, priority 2022, published 2024)
